Source: article PMC4247381, “Control of somatic membrane potential in nociceptive neurons and its implications for peripheral nociceptive transmission” (Pain, 2014)
Where two headings read alike, the source gives them in different places.

Columns and labels:
Kv7.2/Kv7.3 = biological target: T1, Kv7.2/Kv7.3 (Homo sapiens, UniProt O43525+O43526); test: Rb+ efflux assay and whole-cell patch clamp in CHO cells expressing Kv7.[…]/Kv7.[…] (activator); format: cell-based
T1 construct: gene KCNQ2; with Kv7.3 (KCNQ3)

Cav3.2 = biological target: T2, Cav3.2 (Homo sapiens, UniProt O95180); test: whole-cell patch clamp of recombinant human Cav3.[…] in HEK293 cells (enhancer); format: cell-based
T2 construct: gene CACNA1H
T2 sequence (O95180 whole entry): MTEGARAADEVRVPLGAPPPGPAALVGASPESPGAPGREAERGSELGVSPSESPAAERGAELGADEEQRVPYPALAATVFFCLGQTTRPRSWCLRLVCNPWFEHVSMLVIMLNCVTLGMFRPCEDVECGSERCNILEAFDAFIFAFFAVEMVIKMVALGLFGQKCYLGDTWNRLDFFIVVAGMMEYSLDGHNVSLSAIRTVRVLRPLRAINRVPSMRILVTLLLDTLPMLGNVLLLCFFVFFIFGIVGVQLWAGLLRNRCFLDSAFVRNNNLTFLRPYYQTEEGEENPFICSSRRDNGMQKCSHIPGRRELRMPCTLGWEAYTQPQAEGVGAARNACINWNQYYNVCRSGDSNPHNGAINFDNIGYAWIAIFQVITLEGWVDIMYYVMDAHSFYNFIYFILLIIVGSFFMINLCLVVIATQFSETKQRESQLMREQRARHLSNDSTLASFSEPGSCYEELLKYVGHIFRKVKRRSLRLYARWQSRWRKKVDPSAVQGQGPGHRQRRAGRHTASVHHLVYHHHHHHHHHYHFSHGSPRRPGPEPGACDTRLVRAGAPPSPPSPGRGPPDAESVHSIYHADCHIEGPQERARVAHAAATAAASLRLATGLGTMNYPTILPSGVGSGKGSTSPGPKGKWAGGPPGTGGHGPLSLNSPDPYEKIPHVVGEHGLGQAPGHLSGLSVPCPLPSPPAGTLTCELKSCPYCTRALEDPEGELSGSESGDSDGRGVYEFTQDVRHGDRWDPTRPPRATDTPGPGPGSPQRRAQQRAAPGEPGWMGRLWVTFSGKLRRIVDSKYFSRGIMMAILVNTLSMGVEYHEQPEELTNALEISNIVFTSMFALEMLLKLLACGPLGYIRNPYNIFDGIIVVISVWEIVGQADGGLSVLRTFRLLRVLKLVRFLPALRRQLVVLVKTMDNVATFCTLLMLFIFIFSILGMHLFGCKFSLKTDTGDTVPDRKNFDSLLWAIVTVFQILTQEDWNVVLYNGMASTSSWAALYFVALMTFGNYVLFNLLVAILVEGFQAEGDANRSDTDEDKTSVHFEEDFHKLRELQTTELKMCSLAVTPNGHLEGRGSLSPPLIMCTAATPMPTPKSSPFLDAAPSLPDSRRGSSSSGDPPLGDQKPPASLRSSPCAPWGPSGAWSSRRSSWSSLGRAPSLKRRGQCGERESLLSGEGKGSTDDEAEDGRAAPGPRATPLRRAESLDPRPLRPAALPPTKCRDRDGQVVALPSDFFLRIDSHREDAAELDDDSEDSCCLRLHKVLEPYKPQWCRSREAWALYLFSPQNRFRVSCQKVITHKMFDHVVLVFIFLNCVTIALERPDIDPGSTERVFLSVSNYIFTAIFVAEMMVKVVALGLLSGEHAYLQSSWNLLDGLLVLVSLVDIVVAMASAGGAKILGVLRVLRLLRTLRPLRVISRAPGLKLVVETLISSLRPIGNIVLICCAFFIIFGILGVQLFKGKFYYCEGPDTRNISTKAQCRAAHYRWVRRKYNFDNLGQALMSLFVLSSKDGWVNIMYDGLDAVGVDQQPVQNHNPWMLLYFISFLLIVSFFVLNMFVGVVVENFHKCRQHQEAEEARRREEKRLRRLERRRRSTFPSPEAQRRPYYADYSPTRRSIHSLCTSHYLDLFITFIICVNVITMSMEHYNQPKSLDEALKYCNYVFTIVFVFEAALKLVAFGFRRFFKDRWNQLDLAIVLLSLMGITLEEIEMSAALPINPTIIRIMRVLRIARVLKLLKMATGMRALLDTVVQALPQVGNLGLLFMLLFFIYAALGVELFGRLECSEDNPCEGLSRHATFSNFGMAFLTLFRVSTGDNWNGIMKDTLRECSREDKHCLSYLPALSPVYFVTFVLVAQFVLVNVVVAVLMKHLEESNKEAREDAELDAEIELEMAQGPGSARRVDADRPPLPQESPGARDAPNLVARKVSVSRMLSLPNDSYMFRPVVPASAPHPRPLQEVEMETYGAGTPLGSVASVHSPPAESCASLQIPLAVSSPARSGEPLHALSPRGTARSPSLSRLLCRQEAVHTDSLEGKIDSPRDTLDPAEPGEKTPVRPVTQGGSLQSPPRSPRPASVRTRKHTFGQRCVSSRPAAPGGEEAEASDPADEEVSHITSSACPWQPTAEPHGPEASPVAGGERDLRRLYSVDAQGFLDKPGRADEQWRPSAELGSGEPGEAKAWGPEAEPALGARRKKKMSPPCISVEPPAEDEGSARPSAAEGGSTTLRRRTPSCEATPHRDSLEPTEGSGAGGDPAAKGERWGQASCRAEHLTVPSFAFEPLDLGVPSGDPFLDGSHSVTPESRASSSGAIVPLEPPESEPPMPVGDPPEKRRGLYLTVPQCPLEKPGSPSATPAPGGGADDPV

T1 sequence (O43526 whole entry): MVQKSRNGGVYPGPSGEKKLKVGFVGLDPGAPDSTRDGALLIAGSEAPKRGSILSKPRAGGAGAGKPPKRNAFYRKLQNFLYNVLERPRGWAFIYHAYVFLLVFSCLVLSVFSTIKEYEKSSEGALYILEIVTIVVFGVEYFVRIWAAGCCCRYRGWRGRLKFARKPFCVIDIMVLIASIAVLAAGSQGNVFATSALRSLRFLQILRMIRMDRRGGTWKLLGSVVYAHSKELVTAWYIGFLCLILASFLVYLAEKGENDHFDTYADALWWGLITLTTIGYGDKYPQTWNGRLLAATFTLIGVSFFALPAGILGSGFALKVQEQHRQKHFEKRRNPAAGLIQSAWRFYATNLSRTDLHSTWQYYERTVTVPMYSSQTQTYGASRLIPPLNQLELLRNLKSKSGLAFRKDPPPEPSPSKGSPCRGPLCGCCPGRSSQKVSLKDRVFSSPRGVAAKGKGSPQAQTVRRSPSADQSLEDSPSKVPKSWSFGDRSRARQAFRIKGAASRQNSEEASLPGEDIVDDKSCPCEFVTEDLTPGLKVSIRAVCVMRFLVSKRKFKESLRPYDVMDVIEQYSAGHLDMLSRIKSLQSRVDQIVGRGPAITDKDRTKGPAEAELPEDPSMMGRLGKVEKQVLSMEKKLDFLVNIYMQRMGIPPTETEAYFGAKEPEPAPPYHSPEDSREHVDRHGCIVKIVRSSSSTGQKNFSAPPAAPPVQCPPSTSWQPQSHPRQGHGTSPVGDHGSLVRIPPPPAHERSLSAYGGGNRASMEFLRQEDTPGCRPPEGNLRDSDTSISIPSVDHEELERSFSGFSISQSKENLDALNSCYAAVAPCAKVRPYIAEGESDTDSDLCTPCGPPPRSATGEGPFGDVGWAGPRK
T1 sequence (O43525 whole entry): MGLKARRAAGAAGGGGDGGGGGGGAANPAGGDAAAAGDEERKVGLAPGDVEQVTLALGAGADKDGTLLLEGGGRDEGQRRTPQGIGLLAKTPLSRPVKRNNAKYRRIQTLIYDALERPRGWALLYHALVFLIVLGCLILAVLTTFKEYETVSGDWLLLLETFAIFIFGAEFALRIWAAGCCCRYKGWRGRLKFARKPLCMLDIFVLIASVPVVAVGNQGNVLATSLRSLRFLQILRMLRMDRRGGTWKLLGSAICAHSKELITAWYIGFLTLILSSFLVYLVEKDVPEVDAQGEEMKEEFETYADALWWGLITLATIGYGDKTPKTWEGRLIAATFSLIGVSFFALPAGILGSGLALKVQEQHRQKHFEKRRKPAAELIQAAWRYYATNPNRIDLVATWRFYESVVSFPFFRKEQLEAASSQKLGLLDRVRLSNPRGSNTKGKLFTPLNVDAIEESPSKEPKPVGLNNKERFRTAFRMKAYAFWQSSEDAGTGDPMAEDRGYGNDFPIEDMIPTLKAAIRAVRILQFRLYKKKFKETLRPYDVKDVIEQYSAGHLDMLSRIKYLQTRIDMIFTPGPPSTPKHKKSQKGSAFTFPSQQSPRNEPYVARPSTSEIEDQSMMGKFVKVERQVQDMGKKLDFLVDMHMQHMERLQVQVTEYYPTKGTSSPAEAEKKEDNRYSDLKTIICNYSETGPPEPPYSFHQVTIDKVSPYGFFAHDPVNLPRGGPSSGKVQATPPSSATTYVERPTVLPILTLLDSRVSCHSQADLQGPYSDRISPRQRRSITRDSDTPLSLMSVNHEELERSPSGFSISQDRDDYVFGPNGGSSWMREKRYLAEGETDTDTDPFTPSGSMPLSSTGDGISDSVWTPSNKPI

Structure (SMILES): Oc1c(Cl)cc(Cl)cc1Sc1cc(Cl)cc(Cl)c1O [BITH, Bithionol]
- EC50 (Kv7.2/Kv7.3; read-out: EC50): 4900 ± 1080 nM

Structure (SMILES): CCOC(=O)Nc1ccc(NCc2ccc(F)cc2)cc1N [RTG, Retigabine]
- EC50 (Kv7.2/Kv7.3): 700 ± 90 nM

Structure (SMILES): O=C1N=C2C=CC=CN2C12Cc1ccccc1C2 [ST101, spiro[imidazo[1,2-a]pyridine-3,2-indan]-2(3H)-one]
- EC50 (Cav3.2): 0.12 ± 0.04 nM
